Data reported in ChEMBL document CHEMBL4308841, “Synthesis, in vitro antiproliferative activity, and kinase inhibitory effects of pyrazole-containing diarylureas and diarylamides” (Eur J Med Chem, 2018).

How the values were obtained:
[1] = system: TK-10; assay: Growth inhibition of human TK10 cells assessed as cell growth at 10 uM incubated for 48 hrs by sulforhodamine B assay relative to control; assay type: functional; conditions: TK-10, 48 h, read-out: Activity
[2] = system: SR; assay: Growth inhibition of human SR cells assessed as cell growth at 0.01 uM incubated for 48 hrs by sulforhodamine B assay relative to control; assay type: functional; conditions: read-out: Activity
[3] = system: MOLT-4; assay: Growth inhibition of human MOLT4 cells assessed as cell growth at 1 uM incubated for 48 hrs by sulforhodamine B assay relative to control; assay type: functional; conditions: MOLT-4, 48 h, read-out: Activity
[4] = system: MDA-MB-435; assay: Growth inhibition of human MDA-MB-435 cells incubated for 48 hrs by sulforhodamine B assay; assay type: functional, cell-based; conditions: MDA-MB-435, 48 h
[5] = system: HT-29; assay: Growth inhibition of human HT-29 cells incubated for 48 hrs by sulforhodamine B assay; assay type: functional, cell-based; conditions: HT-29, 48 h
[6] = system: MDA-MB-435; assay: Growth inhibition of human MDA-MB-435 cells assessed as cell growth at 1 uM incubated for 48 hrs by sulforhodamine B assay relative to control; assay type: functional; conditions: MDA-MB-435, 48 h, read-out: Activity
[7] = system: SNB-19; assay: Growth inhibition of human SNB19 cells assessed as cell growth at 0.01 uM incubated for 48 hrs by sulforhodamine B assay relative to control; assay type: functional; conditions: SNB-19, 48 h, read-out: Activity
[8] = system: MDA-MB-468; assay: Growth inhibition of human MDA-MB-468 cells incubated for 48 hrs by sulforhodamine B assay; assay type: functional, cell-based; conditions: MDA-MB-468, 48 h
[9] = system: OVCAR-4; assay: Growth inhibition of human OVCAR4 cells assessed as cell growth at 0.01 uM incubated for 48 hrs by sulforhodamine B assay relative to control; assay type: functional; conditions: OVCAR-4, 48 h, read-out: Activity
[10] = system: LOX IMVI; assay: Growth inhibition of human LOXIMVI cells incubated for 48 hrs by sulforhodamine B assay; assay type: functional
[11] = system: Hs-578T; assay: Growth inhibition of human Hs578T cells assessed as cell growth at 1 uM incubated for 48 hrs by sulforhodamine B assay relative to control; assay type: functional; conditions: read-out: Activity
[12] = system: 786-0; assay: Growth inhibition of human 786-0 cells incubated for 48 hrs by sulforhodamine B assay; assay type: functional, cell-based; conditions: 786-0, 48 h
[13] = system: T47D; assay: Growth inhibition of human T47D cells assessed as cell growth at 0.01 uM incubated for 48 hrs by sulforhodamine B assay relative to control; assay type: functional; conditions: read-out: Activity
[14] = system: OVCAR-4; assay: Growth inhibition of human OVCAR4 cells incubated for 48 hrs by sulforhodamine B assay; assay type: functional, cell-based; conditions: OVCAR-4, 48 h
[15] = system: NCI-H226; assay: Growth inhibition of human NCI-H226 cells assessed as cell growth at 1 uM incubated for 48 hrs by sulforhodamine B assay relative to control; assay type: functional; conditions: NCI-H226, 48 h, read-out: Activity
[16] = system: OVCAR-5; assay: Growth inhibition of human OVCAR5 cells incubated for 48 hrs by sulforhodamine B assay; assay type: functional, cell-based; conditions: OVCAR-5, 48 h
[17] = system: A549; assay: Growth inhibition of human A549/ATCC cells assessed as cell growth at 1 uM incubated for 48 hrs by sulforhodamine B assay relative to control; assay type: functional; conditions: A549, 48 h, read-out: Activity
[18] = system: OVCAR-8; assay: Growth inhibition of human OVCAR8 cells assessed as cell growth at 0.1 uM incubated for 48 hrs by sulforhodamine B assay relative to control; assay type: functional; conditions: OVCAR-8, 48 h, read-out: Activity
[19] = system: M14; assay: Growth inhibition of human M14 cells assessed as cell growth at 0.1 uM incubated for 48 hrs by sulforhodamine B assay relative to control; assay type: functional; conditions: M14, 48 h, read-out: Activity
[20] = system: HCC 2998; assay: Growth inhibition of human HCC2998 cells assessed as cell growth at 1 uM incubated for 48 hrs by sulforhodamine B assay relative to control; assay type: functional; conditions: HCC 2998, 48 h, read-out: Activity
[21] = system: U-251; assay: Growth inhibition of human U251 cells assessed as cell growth at 0.01 uM incubated for 48 hrs by sulforhodamine B assay relative to control; assay type: functional; conditions: U-251, 48 h, read-out: Activity
[22] = system: A498; assay: Growth inhibition of human A498 cells incubated for 48 hrs by sulforhodamine B assay; assay type: functional, cell-based; conditions: A498, 48 h
[23] = system: SK-MEL-2; assay: Growth inhibition of human SK-MEL-2 cells assessed as cell growth at 0.1 uM incubated for 48 hrs by sulforhodamine B assay relative to control; assay type: functional; conditions: SK-MEL-2, 48 h, read-out: Activity
[24] = system: HCT-15; assay: Growth inhibition of human HCT15 cells assessed as cell growth at 100 uM incubated for 48 hrs by sulforhodamine B assay relative to control; assay type: functional; conditions: HCT-15, 48 h, read-out: Activity
[25] = system: K562; assay: Growth inhibition of human K562 cells assessed as cell growth at 0.1 uM incubated for 48 hrs by sulforhodamine B assay relative to control; assay type: functional; conditions: K562, 48 h, read-out: Activity
[26] = system: OVCAR-3; assay: Growth inhibition of human OVCAR3 cells assessed as cell growth at 100 uM incubated for 48 hrs by sulforhodamine B assay relative to control; assay type: functional; conditions: OVCAR-3, 48 h, read-out: Activity
[27] = system: SW-620; assay: Growth inhibition of human SW620 cells assessed as cell growth at 0.01 uM incubated for 48 hrs by sulforhodamine B assay relative to control; assay type: functional; conditions: SW-620, 48 h, read-out: Activity
[28] = read-out: LC50 (the source's name)
[29] = read-out: pLC50 (the source's name) (converted)

In the case of COc1cc(Cl)cc(-c2nn(-c3cccc(NC(=O)c4ccc(Cl)c(Cl)c4)c3)cc2-c2ccncc2)c1, the growth at 10 µM [1] is reported as 104%.

COc1cc(Cl)cc(-c2nn(-c3cccc(NC(=O)Nc4ccc(Cl)c(Cl)c4)c3)cc2-c2ccncc2)c1 gave a growth at 0.01 µM [2] of 94%, a growth at 1 µM [3] of 70% and a growth at 10 µM [1] of 19.8%. For the same compound, the GI50 ([4]; read-out: GI50) was 2.06 µM, the LC50 ([4]; read-out: LC50) was > 100 µM and the TGI ([4]; read-out: TGI) was 60 µM. For the same compound, the GI50 ([4]; read-out: pGI50 (converted)) was 2.09 µM, the LC50 ([4]; read-out: pLC50 (converted)) was > 100 µM and the TGI ([4]; read-out: pTGI (converted)) was 6.03 µM. For the same compound, the CC50 [5, 28] was > 100 µM, the GI50 ([5]; read-out: pGI50 (converted)) was 2.4 µM and the CC50 [5, 29] was > 100 µM. The TGI ([5]; read-out: pTGI (converted)) was 9.12 µM, the growth at 1 µM [6] was 85% and the growth at 0.01 µM [7] was 92%. For the same compound, the IC50 [8] was 1.74 µM, the GI50 ([8]; read-out: GI50) was 1.74 µM and the CC50 [8, 28] was > 100 µM. The TGI ([8]; read-out: TGI) was 73.7 µM, the GI50 ([8]; read-out: pGI50 (converted)) was 1.74 µM and the CC50 [8, 29] was > 100 µM. It also gave a TGI ([8]; read-out: pTGI (converted)) of 7.41 µM, a growth at 0.01 µM [9] of 93% and a GI50 ([10]; read-out: GI50) of 2.91 µM. For the same compound, the CC50 [10, 28] was > 100 µM, the TGI ([10]; read-out: TGI) was 12.4 µM and the GI50 ([10]; read-out: pGI50 (converted)) was 2.88 µM. The CC50 [10, 29] was > 100 µM, the TGI ([10]; read-out: pTGI (converted)) was 30.9 µM and the growth at 1 µM [11] was 99%. The GI50 ([12]; read-out: GI50) was 2.31 µM, the CC50 [12, 28] was > 100 µM and the TGI ([12]; read-out: TGI) was 75.4 µM. The GI50 ([12]; read-out: pGI50 (converted)) was 2.29 µM, the CC50 [12, 29] was > 100 µM and the TGI ([12]; read-out: pTGI (converted)) was 7.76 µM. The growth at 0.01 µM [13] was 94%, the GI50 ([14]; read-out: GI50) was 2 µM and the CC50 [14, 28] was > 100 µM. The TGI ([14]; read-out: TGI) was 53.8 µM, the GI50 ([14]; read-out: pGI50 (converted)) was 2.82 µM and the CC50 [14, 29] was > 100 µM. For the same compound, the TGI ([14]; read-out: pTGI (converted)) was 53.7 µM, the growth at 1 µM [15] was 82% and the GI50 ([16]; read-out: GI50) was 4.3 µM. The CC50 [16, 28] was > 100 µM, the TGI ([16]; read-out: TGI) was > 100 µM and the GI50 ([16]; read-out: pGI50 (converted)) was 4.37 µM. The CC50 [16, 29] was > 100 µM, the TGI ([16]; read-out: pTGI (converted)) was > 100 µM and the growth at 1 µM [17] was 82%. For the same compound, the growth at 0.1 µM [18] was 101%, the growth at 0.1 µM [19] was 100% and the growth at 1 µM [20] was 91%. For the same compound, the growth at 0.01 µM [21] was 95%, the GI50 ([22]; read-out: GI50) was 2.52 µM and the CC50 [22, 28] was > 100 µM. For the same compound, the TGI ([22]; read-out: TGI) was 90.9 µM, the GI50 ([22]; read-out: pGI50 (converted)) was 2.51 µM and the CC50 [22, 29] was > 100 µM. The TGI ([22]; read-out: pTGI (converted)) was 91.2 µM, the growth at 0.1 µM [23] was 54% and the growth at 100 µM [24] was -9%. The growth at 0.1 µM [25] was 58%, the growth at 100 µM [26] was -4% and the growth at 0.01 µM [27] was 100%.
